Data from the kinase profiling compilation of Christmann-Franck et al. (2016).

Key:
Assay in all cases: KINOMEscan competition binding
Details in all cases: compound 10.0 µM; call rule not given here
ABL1 (human) = ABL1 (human) (UniProt P00519)
ABL2 (human) = ABL2 (human) (UniProt P42684)
ACVR2A (human) = ACVR2A (human) (UniProt P27037)
CSNK1A1L (human) = CSNK1A1L (human) (UniProt Q8N752)
EPHA1 (human) = EPHA1 (human) (UniProt P21709)
EPHA5 (human) = EPHA5 (human) (UniProt P54756)
EPHB1 (human) = EPHB1 (human) (UniProt P54762)
FER (human) = FER (human) (UniProt P16591)
FGR (human) = FGR (human) (UniProt P09769)
FRK (human) = FRK (human) (UniProt P42685)
ITK (human) = ITK (human) (UniProt Q08881)
KIT (human) = KIT (human) (UniProt P10721)
MAP3K11 (human) = MAP3K11 (human) (UniProt Q16584)
MAP4K5 (human) = MAP4K5 (human) (UniProt Q9Y4K4)
MAPK8 (human) = MAPK8 (human) (UniProt P45983)
MST4 (human) = MST4 (human) (UniProt Q9P289)
NLK (human) = NLK (human) (UniProt Q9UBE8)
NTRK3 (human) = NTRK3 (human) (UniProt Q16288)
PKN2 (human) = PKN2 (human) (UniProt Q16513)
RET (human) = RET (human) (UniProt P07949)
STK16 (human) = STK16 (human) (UniProt O75716)
STK24 (human) = STK24 (human) (UniProt Q9Y6E0)
SYK (human) = SYK (human) (UniProt P43405)
TNNI3K (human) = TNNI3K (human) (UniProt Q59H18)
[1] = target: TYK2 JH1 catalytic (human) (UniProt P29597)
AAK1 (human) = AAK1 (human) (UniProt Q2M2I8)
ACVR1 (human) = ACVR1 (human) (UniProt Q04771)
CSNK1G1 (human) = CSNK1G1 (human) (UniProt Q9HCP0)
BLK (human) = BLK (human) (UniProt P51451)
BRAF (human) = BRAF (human) (UniProt P15056)
CAMK2A (human) = CAMK2A (human) (UniProt Q9UQM7)
SLK (human) = SLK (human) (UniProt Q9H2G2)
MARK2 (human) = MARK2 (human) (UniProt Q7KZI7)
AURKB (human) = AURKB (human) (UniProt Q96GD4)
PLK4 (human) = PLK4 (human) (UniProt O00444)
STK17B (human) = STK17B (human) (UniProt O94768)
TTK (human) = TTK (human) (UniProt P33981)
BMP2K (human) = BMP2K (human) (UniProt Q9NSY1)
PDPK1 (human) = PDPK1 (human) (UniProt O15530)

Chain of TNNI3K (human) (Q59H18 whole entry, looked up): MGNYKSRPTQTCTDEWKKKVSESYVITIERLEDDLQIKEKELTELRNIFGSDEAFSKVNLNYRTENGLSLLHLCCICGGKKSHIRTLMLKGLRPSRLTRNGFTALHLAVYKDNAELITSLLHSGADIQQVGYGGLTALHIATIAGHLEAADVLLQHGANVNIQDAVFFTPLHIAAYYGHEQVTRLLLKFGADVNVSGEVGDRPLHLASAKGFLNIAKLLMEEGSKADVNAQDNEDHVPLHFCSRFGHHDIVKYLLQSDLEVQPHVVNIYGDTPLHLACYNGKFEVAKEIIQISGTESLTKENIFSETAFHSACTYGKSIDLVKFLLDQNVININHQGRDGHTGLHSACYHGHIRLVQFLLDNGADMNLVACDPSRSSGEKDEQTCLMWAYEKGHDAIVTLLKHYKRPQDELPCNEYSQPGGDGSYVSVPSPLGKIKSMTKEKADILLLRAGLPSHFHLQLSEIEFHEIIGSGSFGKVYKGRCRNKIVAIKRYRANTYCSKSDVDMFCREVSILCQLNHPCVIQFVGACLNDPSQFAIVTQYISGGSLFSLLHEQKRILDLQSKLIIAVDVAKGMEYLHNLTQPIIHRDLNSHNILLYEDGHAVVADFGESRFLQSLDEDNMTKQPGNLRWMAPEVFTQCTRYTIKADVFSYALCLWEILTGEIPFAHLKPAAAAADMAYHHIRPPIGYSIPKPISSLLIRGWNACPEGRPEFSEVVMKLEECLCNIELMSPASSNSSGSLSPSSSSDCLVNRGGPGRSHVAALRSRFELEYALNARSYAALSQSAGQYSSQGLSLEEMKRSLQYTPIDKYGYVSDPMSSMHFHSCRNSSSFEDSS
Chain of FRK (human) (P42685 whole entry, looked up): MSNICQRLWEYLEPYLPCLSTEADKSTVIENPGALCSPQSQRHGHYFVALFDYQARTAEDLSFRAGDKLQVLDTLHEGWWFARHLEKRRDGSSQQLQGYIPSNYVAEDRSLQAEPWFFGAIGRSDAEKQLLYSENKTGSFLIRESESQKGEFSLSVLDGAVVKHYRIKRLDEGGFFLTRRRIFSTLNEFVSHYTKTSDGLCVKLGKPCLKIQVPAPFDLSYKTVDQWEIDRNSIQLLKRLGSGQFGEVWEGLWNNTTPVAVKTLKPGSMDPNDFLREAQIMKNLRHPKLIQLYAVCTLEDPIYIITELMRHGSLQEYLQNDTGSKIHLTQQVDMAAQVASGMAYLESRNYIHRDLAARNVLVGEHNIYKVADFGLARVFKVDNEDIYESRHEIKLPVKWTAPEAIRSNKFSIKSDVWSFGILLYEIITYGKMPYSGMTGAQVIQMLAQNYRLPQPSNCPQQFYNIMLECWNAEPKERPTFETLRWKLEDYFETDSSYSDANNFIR
Chain of EPHA1 (human) (P21709 whole entry, looked up): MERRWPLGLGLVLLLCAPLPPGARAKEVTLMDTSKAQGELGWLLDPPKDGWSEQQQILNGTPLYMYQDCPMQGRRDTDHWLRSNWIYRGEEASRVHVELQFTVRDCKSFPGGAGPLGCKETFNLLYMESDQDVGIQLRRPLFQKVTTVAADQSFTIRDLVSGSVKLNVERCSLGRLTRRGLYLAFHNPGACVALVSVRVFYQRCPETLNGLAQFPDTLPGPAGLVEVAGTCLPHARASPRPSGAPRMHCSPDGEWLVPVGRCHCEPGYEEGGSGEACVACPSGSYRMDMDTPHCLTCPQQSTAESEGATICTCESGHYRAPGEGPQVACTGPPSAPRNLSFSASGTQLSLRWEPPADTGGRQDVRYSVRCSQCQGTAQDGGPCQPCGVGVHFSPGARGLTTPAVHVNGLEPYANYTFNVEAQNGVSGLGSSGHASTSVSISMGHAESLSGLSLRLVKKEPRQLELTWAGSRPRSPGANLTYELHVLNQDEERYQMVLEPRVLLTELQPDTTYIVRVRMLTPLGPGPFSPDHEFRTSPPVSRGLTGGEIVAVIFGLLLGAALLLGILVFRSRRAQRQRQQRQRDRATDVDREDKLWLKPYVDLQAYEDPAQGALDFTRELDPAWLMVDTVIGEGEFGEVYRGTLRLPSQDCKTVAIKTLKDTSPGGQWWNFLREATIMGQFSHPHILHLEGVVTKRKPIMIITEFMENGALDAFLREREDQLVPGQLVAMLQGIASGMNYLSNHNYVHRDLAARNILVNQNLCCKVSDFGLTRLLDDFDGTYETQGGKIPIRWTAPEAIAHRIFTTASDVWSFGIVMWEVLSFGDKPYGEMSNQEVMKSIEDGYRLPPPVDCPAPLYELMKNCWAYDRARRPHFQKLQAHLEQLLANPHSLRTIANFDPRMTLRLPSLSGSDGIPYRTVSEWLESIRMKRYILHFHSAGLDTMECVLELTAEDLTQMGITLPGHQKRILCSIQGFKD
Chain of FER (human) (P16591 whole entry, looked up): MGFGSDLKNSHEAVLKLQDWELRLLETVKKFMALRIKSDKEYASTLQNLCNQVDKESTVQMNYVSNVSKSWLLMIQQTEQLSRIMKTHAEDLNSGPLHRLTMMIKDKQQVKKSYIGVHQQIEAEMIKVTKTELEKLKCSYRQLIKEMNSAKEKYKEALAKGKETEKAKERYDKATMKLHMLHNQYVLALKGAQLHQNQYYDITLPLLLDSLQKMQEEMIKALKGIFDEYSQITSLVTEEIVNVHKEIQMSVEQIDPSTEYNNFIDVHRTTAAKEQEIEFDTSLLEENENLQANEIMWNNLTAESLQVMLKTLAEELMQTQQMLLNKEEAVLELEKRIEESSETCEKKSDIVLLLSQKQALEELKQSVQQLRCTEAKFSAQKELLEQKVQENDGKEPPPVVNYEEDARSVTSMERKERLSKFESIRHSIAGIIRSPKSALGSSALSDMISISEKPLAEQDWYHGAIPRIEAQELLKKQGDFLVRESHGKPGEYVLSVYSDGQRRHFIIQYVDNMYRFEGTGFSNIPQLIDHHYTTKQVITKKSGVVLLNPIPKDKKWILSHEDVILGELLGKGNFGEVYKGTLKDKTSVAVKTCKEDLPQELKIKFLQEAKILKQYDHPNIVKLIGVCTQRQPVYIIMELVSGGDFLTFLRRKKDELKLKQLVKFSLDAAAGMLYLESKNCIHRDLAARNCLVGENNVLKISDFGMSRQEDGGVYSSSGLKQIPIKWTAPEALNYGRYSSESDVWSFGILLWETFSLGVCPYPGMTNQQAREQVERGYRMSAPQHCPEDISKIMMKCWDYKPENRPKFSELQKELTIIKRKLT
Chain of KIT (human) (P10721 whole entry, looked up): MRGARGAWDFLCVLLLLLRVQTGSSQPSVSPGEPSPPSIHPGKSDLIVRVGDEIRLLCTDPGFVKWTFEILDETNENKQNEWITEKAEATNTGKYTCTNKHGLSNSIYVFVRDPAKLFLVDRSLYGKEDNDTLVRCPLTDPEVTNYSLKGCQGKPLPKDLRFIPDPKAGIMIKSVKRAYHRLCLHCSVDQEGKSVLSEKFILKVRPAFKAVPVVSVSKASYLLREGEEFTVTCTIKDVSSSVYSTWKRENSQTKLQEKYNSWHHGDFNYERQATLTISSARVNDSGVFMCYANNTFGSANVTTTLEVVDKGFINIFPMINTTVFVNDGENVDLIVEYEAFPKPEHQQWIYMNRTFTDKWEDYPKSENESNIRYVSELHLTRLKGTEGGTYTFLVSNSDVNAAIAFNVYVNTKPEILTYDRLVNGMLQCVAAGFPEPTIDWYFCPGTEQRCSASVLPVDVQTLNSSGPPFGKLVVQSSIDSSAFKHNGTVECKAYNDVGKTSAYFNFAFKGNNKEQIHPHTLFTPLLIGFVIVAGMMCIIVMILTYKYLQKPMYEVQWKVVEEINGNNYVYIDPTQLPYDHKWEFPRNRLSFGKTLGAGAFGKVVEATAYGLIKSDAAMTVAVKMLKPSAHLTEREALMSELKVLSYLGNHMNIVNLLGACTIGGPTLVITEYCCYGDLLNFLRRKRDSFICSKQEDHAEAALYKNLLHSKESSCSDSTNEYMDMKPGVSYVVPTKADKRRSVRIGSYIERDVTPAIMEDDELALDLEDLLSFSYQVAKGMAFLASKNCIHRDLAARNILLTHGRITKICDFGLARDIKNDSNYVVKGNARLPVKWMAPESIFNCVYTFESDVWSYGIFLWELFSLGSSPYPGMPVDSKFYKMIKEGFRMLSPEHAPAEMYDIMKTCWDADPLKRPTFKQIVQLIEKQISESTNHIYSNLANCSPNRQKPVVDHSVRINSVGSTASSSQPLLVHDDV
Chain of BRAF (human) (P15056 whole entry, looked up): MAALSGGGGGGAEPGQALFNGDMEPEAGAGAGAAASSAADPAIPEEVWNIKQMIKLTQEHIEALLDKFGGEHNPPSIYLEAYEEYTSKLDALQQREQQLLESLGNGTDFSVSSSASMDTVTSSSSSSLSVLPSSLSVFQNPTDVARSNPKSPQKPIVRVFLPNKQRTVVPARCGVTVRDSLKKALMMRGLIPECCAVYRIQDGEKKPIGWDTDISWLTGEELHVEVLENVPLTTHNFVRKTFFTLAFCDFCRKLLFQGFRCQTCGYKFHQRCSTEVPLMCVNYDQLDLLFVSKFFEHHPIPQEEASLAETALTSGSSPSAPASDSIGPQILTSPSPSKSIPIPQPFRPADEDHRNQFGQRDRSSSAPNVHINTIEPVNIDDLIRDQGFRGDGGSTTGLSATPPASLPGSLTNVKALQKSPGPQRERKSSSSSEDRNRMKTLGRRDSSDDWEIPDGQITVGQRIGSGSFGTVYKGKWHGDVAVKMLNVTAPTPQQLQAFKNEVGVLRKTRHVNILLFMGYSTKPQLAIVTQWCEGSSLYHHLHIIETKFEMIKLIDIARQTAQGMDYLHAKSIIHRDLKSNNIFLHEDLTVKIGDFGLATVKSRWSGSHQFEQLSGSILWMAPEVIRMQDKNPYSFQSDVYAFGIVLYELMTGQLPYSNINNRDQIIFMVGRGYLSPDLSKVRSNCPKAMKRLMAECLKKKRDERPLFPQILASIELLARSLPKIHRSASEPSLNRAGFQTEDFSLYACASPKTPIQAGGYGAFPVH

Compound	kinase still bound, per cent of control (ABL1 (human))	kinase still bound, per cent of control (ABL2 (human))	kinase still bound, per cent of control (ACVR2A (human))	kinase still bound, per cent of control (EPHA1 (human))	kinase still bound, per cent of control (EPHA5 (human))	kinase still bound, per cent of control (EPHB1 (human))	kinase still bound, per cent of control (FER (human))	kinase still bound, per cent of control (FGR (human))	kinase still bound, per cent of control (FRK (human))	kinase still bound, per cent of control (KIT (human))	kinase still bound, per cent of control (MAPK8 (human))	kinase still bound, per cent of control (MST4 (human))	kinase still bound, per cent of control (NLK (human))	kinase still bound, per cent of control (NTRK3 (human))	kinase still bound, per cent of control (PKN2 (human))	kinase still bound, per cent of control (RET (human))	kinase still bound, per cent of control (TNNI3K (human))	kinase still bound, per cent of control (CSNK1G1 (human))	kinase still bound, per cent of control (BRAF (human))	kinase still bound, per cent of control (CAMK2A (human))	further results
N#Cc1ccc(-c2cnc3[nH]cc(NC(=O)c4cccnc4)c3c2)cc1	no effect (inactive)	no effect (inactive)	no effect (inactive)	no effect (inactive)	no effect (inactive)	no effect (inactive)	no effect (inactive)	no effect (inactive)	no effect (inactive)	no effect (inactive)	no effect (inactive)	no effect (inactive)	no effect (inactive)	no effect (inactive)	no effect (inactive)	no effect (inactive)	no effect (inactive)	–	–	–	kinase still bound, per cent of control (CSNK1A1L (human)): no effect (inactive); kinase still bound, per cent of control (ITK (human)): no effect (inactive); kinase still bound, per cent of control (MAP3K11 (human)): no effect (inactive); kinase still bound, per cent of control (MAP4K5 (human)): no effect (inactive); kinase still bound, per cent of control (STK16 (human)): 0%; kinase still bound, per cent of control (STK24 (human)): no effect (inactive); kinase still bound, per cent of control (SYK (human)): no effect (inactive); kinase still bound, per cent of control [1]: no effect (inactive)
NC(=O)Nc1sc(-c2ccc(F)cc2)cc1C(N)=O	no effect (inactive)	–	–	–	–	0%	no effect (inactive)	–	no effect (inactive)	–	–	–	no effect (inactive)	–	–	–	–	no effect (inactive)	–	–	kinase still bound, per cent of control (AAK1 (human)): 0%; kinase still bound, per cent of control (ACVR1 (human)): no effect (inactive); kinase still bound, per cent of control (MAP4K5 (human)): no effect (inactive)
O=C1Nc2ccccc2/C1=C/c1ccc[nH]1	no effect (inactive)	no effect (inactive)	no effect (inactive)	no effect (inactive)	no effect (inactive)	–	no effect (inactive)	no effect (inactive)	no effect (inactive)	0%	–	–	no effect (inactive)	–	no effect (inactive)	–	no effect (inactive)	no effect (inactive)	no effect (inactive)	no effect (inactive)	kinase still bound, per cent of control (ACVR1 (human)): no effect (inactive); kinase still bound, per cent of control (BLK (human)): no effect (inactive); kinase still bound, per cent of control (SLK (human)): no effect (inactive); kinase still bound, per cent of control (SYK (human)): no effect (inactive)
CN(C)c1ccc(-c2cc3ncccc3c(NCCCCN)n2)cc1	–	–	no effect (inactive)	–	–	–	–	–	–	–	no effect (inactive)	no effect (inactive)	no effect (inactive)	no effect (inactive)	–	–	no effect (inactive)	no effect (inactive)	no effect (inactive)	no effect (inactive)	kinase still bound, per cent of control (ACVR1 (human)): no effect (inactive); kinase still bound, per cent of control (MARK2 (human)): no effect (inactive); kinase still bound, per cent of control (STK24 (human)): no effect (inactive)
Cc1cc(Nc2cc(N3CCN(C)CC3)nc(Sc3ccc(NC(=O)C4CC4)cc3)n2)[nH]n1	–	0%	no effect (inactive)	–	–	–	–	–	–	–	no effect (inactive)	no effect (inactive)	no effect (inactive)	–	–	0%	no effect (inactive)	no effect (inactive)	no effect (inactive)	no effect (inactive)	kinase still bound, per cent of control (AURKB (human)): 0%; kinase still bound, per cent of control (CSNK1A1L (human)): no effect (inactive); kinase still bound, per cent of control (PLK4 (human)): 0%; kinase still bound, per cent of control (STK17B (human)): no effect (inactive); kinase still bound, per cent of control (TTK (human)): no effect (inactive)
Cc1ccc(O)cc1Nc1ccnc(Nc2cccc(C(N)=O)c2)n1	–	0%	–	0%	0%	0%	–	0%	–	0%	–	no effect (inactive)	–	no effect (inactive)	no effect (inactive)	0%	–	–	no effect (inactive)	no effect (inactive)	kinase still bound, per cent of control (AAK1 (human)): no effect (inactive); kinase still bound, per cent of control (BMP2K (human)): no effect (inactive); kinase still bound, per cent of control (ITK (human)): no effect (inactive); kinase still bound, per cent of control (MARK2 (human)): no effect (inactive); kinase still bound, per cent of control (PDPK1 (human)): no effect (inactive); kinase still bound, per cent of control (STK17B (human)): no effect (inactive); kinase still bound, per cent of control (STK24 (human)): no effect (inactive)
